According to patent publication US10047105B2, “Gyrase inhibitors” (Merck Sharp & Dohme Corp., priority 2009, dated 2018):
In brackets after ≈: the same amount, converted by molar mass.

Key:
[1] = tested on: S. aureus ATCC 13709; assay: MIC, antibacterial potency, S. aureus; type: cell-based
[2] = tested on: S. pneumoniae ATCC 51916; assay: MIC, S. pneumoniae; type: cell-based
[3] = S. pneumoniae (Spn52), in µg/mL

| SMILES | MIC, SA ([1]; S. aureus) | other results |
| --- | --- | --- |
| CCc1[nH]c2nc(Sc3cnc4nccnc4c3)nc(Oc3ccc(OC)c(C#N)c3)c2c1Cl [700,834] |  | MIC, SA ([1]; S. aureus (SA), in µg/mL): 1; MIC Spn52 [2, 3]: 8 |
| CCc1[nH]c2nc(Nc3cnc4c(c3)nnn4CC3CC3)nc(N3CC(O)C3)c2c1Br.O=C(O)C(F)(F)F [700,498] | 16 µg/mL | MIC Spn52 ([2]; S. pneumoniae): > 64 µg/mL |
| CCc1[nH]c2nc(Sc3cnc4nccnc4c3)nc(N3CC[C@H](N(C)C)C3)c2c1Cl.O=C(O)C(F)(F)F [700,497] | 1 µg/mL | MIC Spn52 ([2]; S. pneumoniae): 4 µg/mL |
| CCc1[nH]c2nc(Nc3cnc4c(c3)nnn4C(C)C)nc(OC)c2c1Cl.O=C(O)C(F)(F)F [700,550] | 1 µg/mL | MIC Spn52 ([2]; S. pneumoniae): 8 µg/mL |
| CCc1[nH]c2nc(Sc3cnc4nccnc4c3)nc(N3CC(NC)C3)c2c1Cl [700,714] | 2 µg/mL (≈ 4.68 µM) | MIC Spn52 ([2]; S. pneumoniae): 4 µg/mL (≈ 9.37 µM) |
| CCc1[nH]c2nc(Sc3cnc4cccnc4c3)nc(N3CC4CNC4C3)c2c1Cl (stereo not shown) [700,660] | ≤ 0.5 µg/mL | MIC Spn52 ([2]; S. pneumoniae): 1 µg/mL (≈ 2.28 µM) |
| CCNC(=O)NC1CN(c2nc(Sc3cnc4nccnc4c3)nc3[nH]c(CC)c(Cl)c23)C1 [700,490] | > 64 µg/mL | MIC Spn52 ([2]; S. pneumoniae): 1 µg/mL (≈ 2.07 µM) |
| CCc1[nH]c2nc(Sc3cnc4cccnc4c3)nc(N3CC(N)C4(CC4)C3)c2c1Cl (stereo not shown) [700,869] |  | MIC, SA ([1]; S. aureus (SA), in µg/mL): 2; MIC Spn52 [2, 3]: 4 |
| CCOc1ccc(Nc2nc(OCC)c3c(Br)c(CC)[nH]c3n2)cn1.O=C(O)C(F)(F)F [700,417] | 1 µg/mL | MIC Spn52 ([2]; S. pneumoniae): 16 µg/mL |
| CCc1[nH]c2nc(Nc3cnc4c(c3)nnn4C(C)C)nc(N(C)CCO)c2c1Cl.O=C(O)C(F)(F)F [700,534] | 2 µg/mL | MIC Spn52 ([2]; S. pneumoniae): > 32 µg/mL |
| CCc1[nH]c2nc(Oc3cncc(F)c3)nc(Oc3cncc(F)c3)c2c1Cl.O=C(O)C(F)(F)F [700,477] | 1 µg/mL | MIC Spn52 ([2]; S. pneumoniae): 16 µg/mL |
| CCc1[nH]c2nc(Sc3cnc4nccnc4c3)nc(NCCN(C)C)c2c1Cl.O=C(O)C(F)(F)F [700,513] | > 64 µg/mL | MIC Spn52 ([2]; S. pneumoniae): 32 µg/mL |
| CCOC(=O)c1coc(Sc2nc(OCC)c3c(Br)c(CC)[nH]c3n2)n1 [700,290] | > 64 µg/mL | MIC Spn52 ([2]; S. pneumoniae): > 64 µg/mL |
| C#CCOC(=O)NC1CN(c2nc(Sc3ccc4ccc(C(=O)O)nc4c3)nc3[nH]c(CC)c(Cl)c23)C1 [700,809] |  | MIC, SA ([1]; S. aureus (SA), in µg/mL): <=0.5; MIC Spn52 [2, 3]: 4 |
| CCc1[nH]c2nc(Nc3cnc4c(c3)nnn4C(C)C)nc(N3CC(NC(=O)OC(C)(C)C)C3)c2c1Br.O=C(O)C(F)(F)F [700,485] | 4 µg/mL | MIC Spn52 ([2]; S. pneumoniae): > 64 µg/mL |
| CCc1[nH]c2nc(Sc3cccnc3)nc(N(C)CCN(C)C)c2c1C=O [700,137] | 64 µg/mL (≈ 166 µM) |  |
| CCc1[nH]c2nc(Sc3cccnc3)nc(NC3CCCC[C@H]3O)c2c1C=O (stereo partly shown) [700,132] | 32 µg/mL (≈ 80.5 µM) |  |
| CCc1[nH]c2nc(Sc3cnc4ccccc4n3)nc(N)c2c1C [700,149] | > 64 µg/mL |  |
| CCc1[nH]c2nc(Sc3cccnc3)nc(N[C@H]3CCCC[C@@H]3N)c2c1C=O [700,133] | > 64 µg/mL |  |
| CCc1[nH]c2nc(Sc3cccnc3)nc(NC34CC5CC(C3)C(=O)C(C5)C4)c2c1C=O [700,142] | 32 µg/mL (≈ 71.5 µM) |  |
| CCc1[nH]c2nc(Sc3cccnc3)nc(NCc3cccc(S(C)(=O)=O)c3)c2c1C=O.Cl [700,098] | > 64 µg/mL |  |
| CCc1[nH]c2nc(Sc3cccc(C(=O)O)c3)nc(NC[C@H](C)O)c2c1C=O [700,127] | > 64 µg/mL |  |
| CCc1[nH]c2nc(Sc3cc(=O)n(CCc4ccccc4)c(=O)[nH]3)nc(N3CC(O)C3)c2c1Br [700,413] |  | MIC Spn52 ([2]; S. pneumoniae): 8 µg/mL (≈ 14.7 µM) |
| CCc1[nH]c2nc(Sc3cccnc3)nc(N3CCN(CC(=O)N(C)C)CC3)c2c1C=O [700,085] | > 64 µg/mL |  |
| CCc1[nH]c2nc(Sc3cccnc3)nc(NC(C)C)c2c1C(C)=O [700,122] | > 64 µg/mL |  |
| CCc1[nH]c2nc(Sc3cccnc3N)nc(Cl)c2c1C=O [700,088] | > 64 µg/mL |  |
| CCc1[nH]c2nc(Sc3cccnc3)nc(NCCCn3ccnc3)c2c1C(C)=O [700,121] | 32 µg/mL (≈ 75.9 µM) |  |
| CCc1[nH]c2nc(SCc3cccnc3)nc(N)c2c1C [700,148] | > 64 µg/mL |  |
| CCc1[nH]c2nc(Sc3cccnc3)nc(Cl)c2c1C(C)=O [700,119] | 64 µg/mL (≈ 192 µM) |  |
| CCc1[nH]c2nc(Sc3cccnc3)nc(N3CCN(C(C)C)CC3)c2c1C=O [700,084] | > 64 µg/mL |  |

Continued, in another order:

| MIC, SA ([1]; S. aureus) | SMILES | other results |
| --- | --- | --- |
| > 64 µg/mL | CCc1[nH]c2nc(Sc3nc4ccccc4s3)nc(NCCN3CCOCC3)c2c1C=O [700,102] |  |
| > 64 µg/mL | CCOC(=O)c1ccc(CNc2nc(Sc3cccnc3)nc3[nH]c(CC)c(C=O)c23)o1 [700,135] |  |
| > 64 µg/mL | CCc1[nH]c2nc(Sc3nc4ccccc4s3)nc(Cl)c2c1C=O [700,099] |  |
| > 64 µg/mL | CCc1[nH]c2nc(Sc3cccnc3)nc(NCc3ccccc3OC)c2c1C=O [700,091] |  |
| > 64 µg/mL | CCc1[nH]c2nc(Sc3nc4ccccc4s3)nc(NC(C)C)c2c1C=O [700,101] |  |
| 8 µg/mL (≈ 24.4 µM) | CCOc1nc(Sc2cccnc2)nc2[nH]c(CC)c(C=O)c12 [700,130] |  |
| > 64 µg/mL | C#CCNc1nc(Sc2nc3ccccc3s2)nc2[nH]c(CC)c(C=O)c12 [700,104] |  |
| > 64 µg/mL | CCc1[nH]c2nc(Sc3nc4ccccc4s3)nc(NCCCn3ccnc3)c2c1C=O [700,107] |  |
| > 64 µg/mL | CCc1[nH]c2nc(Sc3nc4ccccc4s3)nc(NCCCN3CCOCC3)c2c1C=O [700,106] |  |
| 16 µg/mL (≈ 48.9 µM) | CCc1[nH]c2nc(Sc3cccnc3)nc(N(C)C)c2c1C=O [700,136] |  |
| > 64 µg/mL | CCc1[nH]c2nc(Sc3cccnc3)nc(NCC(C)C)c2c1C=O [700,076] |  |
| > 64 µg/mL | CCc1[nH]c2nc(Sc3nc4ccccc4s3)nc(NCc3cccnc3)c2c1C=O [700,103] |  |
| > 64 µg/mL | CCc1[nH]c2nc(Sc3cccnc3)nc(NCc3ccccc3)c2c1C=O [700,080] |  |
| 64 µg/mL (≈ 167 µM) | CCc1[nH]c2nc(Sc3cccnc3)nc(NCC3CCCO3)c2c1C=O (stereo not shown) [700,092] |  |
| > 64 µg/mL | CCc1[nH]c2nc(Sc3cccnc3)nc(NCCO)c2c1C=O [700,096] |  |
| > 64 µg/mL | CCc1[nH]c2nc(Sc3nc4ccccc4s3)nc(N)c2c1C [700,147] |  |

| MIC, SA ([1]; S. aureus) | SMILES | other results |
| --- | --- | --- |
| > 64 µg/mL | CCOCCNc1nc(Sc2cccnc2)nc2[nH]c(CC)c(C=O)c12 [700,082] |  |
| > 64 µg/mL | CCc1[nH]c2nc(Sc3cccnc3)nc(NC(C)C)c2c1C=O [700,093] |  |
| > 64 µg/mL | CCNc1nc(Sc2nc3ccccc3s2)nc2[nH]c(CC)c(C=O)c12 [700,105] |  |
| > 64 µg/mL | CCc1[nH]c2nc(Sc3nc4ccccc4s3)nc(Cl)c2c1CO [700,109] |  |
| 16 µg/mL (≈ 50.9 µM) | CCc1[nH]c2nc(Sc3cccnc3)nc(OC)c2c1C=O [700,129] |  |
| 64 µg/mL (≈ 155 µM) | CCc1[nH]c2nc(Sc3cccnc3)nc(NCCCCCC(=O)O)c2c1C=O [700,141] |  |
| > 64 µg/mL | CCc1[nH]c2nc(Sc3cccnc3)nc(NCCOc3ccccc3)c2c1C=O [700,079] |  |
| > 64 µg/mL | CCc1[nH]c2nc(Sc3cccnc3)nc(NCC(O)CO)c2c1C=O (stereo not shown) [700,090] |  |
| > 64 µg/mL | CCc1[nH]c2nc(Sc3cccnc3)nc(NCc3ccc(C)o3)c2c1C=O [700,077] |  |
| 64 µg/mL (≈ 179 µM) | CCc1[nH]c2nc(Sc3cccnc3)nc(NCCOC)c2c1C=O [700,094] |  |
| > 64 µg/mL | CCc1[nH]c2nc(Sc3cccnc3)nc(NCC3CCCCC3)c2c1C=O [700,078] |  |
| > 64 µg/mL | CCc1[nH]c2nc(Sc3nc4ccccc4s3)nc(NN)c2c1C=O [700,108] |  |
| 64 µg/mL (≈ 179 µM) | CCc1[nH]c2nc(Sc3cccnc3)nc(N[C@H](C)CO)c2c1C=O [700,131] |  |
| > 64 µg/mL | CCc1[nH]c2nc(Sc3nc4ccccc4s3)nc(NC[C@H](C)O)c2c1C=O [700,100] |  |
| 64 µg/mL (≈ 201 µM) | CCc1[nH]c2nc(Sc3cccnc3)nc(Cl)c2c1C=O [700,075] |  |
